The text below walks through data of patent US6352852B1, “Method for the purification of human platelet heparanase” (The Australian National University, priority 1996, dated 2002).

Data set [1] concerns the target T1, 13762 MAT cell heparanase (Rattus norvegicus, UniProt Q71RP1).
T1 construct: A time course incubation of 13762 MAT cell homogenates with HS at pH 5.1; endogenous in cells; host or cells: rat mammary adenocarcinoma 13762 MAT cells (Triton X-100 freeze/thaw homogenate)
T1 sequence (Q71RP1 29-536): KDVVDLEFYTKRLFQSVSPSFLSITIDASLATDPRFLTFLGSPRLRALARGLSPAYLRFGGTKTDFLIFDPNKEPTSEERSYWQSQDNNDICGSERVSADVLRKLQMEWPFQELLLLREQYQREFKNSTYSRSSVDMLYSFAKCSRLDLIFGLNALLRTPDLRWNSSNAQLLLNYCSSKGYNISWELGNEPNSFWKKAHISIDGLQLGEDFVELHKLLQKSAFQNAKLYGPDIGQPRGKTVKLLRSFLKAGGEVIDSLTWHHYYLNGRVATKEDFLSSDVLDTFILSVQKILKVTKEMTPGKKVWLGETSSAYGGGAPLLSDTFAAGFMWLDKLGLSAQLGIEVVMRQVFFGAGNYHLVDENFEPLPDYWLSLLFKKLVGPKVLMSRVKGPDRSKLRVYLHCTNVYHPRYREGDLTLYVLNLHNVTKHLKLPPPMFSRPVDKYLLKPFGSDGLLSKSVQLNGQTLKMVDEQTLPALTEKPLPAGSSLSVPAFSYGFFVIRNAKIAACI
Briefly: Gel filtration analysis of substrate degradation by rat 13762 MAT cell homogenate. In kind it is biochemical. The note with it: for heparanase activity towards the substrate: incubation for 16 h at pH 5.1, 6.5 or 7.5; for apparent Mr of degradation fragments: with NAM. The procedure:
To assay for heparanase activity, up to 2 μl of sample was added to an […], containing 5 mM-N-acetylmannosamine and 0.1 mg/ml BSA in a total volume of 20 μl and incubated at 37° C. for the appropriate time. The reaction was stopped by freezing the tubes, 0.3 ml cold PBS added, the solution centrifuged if necessary at 4° C. and 0.1 ml of the sample applied to a cHRG-Sepharose mini-column pre-equilibrated in PBS. The columns were washed with 0.7 ml PBS, the washings and flow through material transferred to a scintillation vial, 10 ml of scintillation fluid added, and the radioactivity determined. Enzyme activity was expressed as pmol product formed per hour per mg protein or 10^6 cells or ml of serum. The cHRG-Sepharose columns were regenerated by the addition of 1 ml of 0.05M-Tris-HCl buffer, pH 7.5, containing 2M-NaCl and then equilibrated with PBS.
Heparanase activity was also detected by gel filtration chromatography of the incubation mixture on a Superose 6 HR 10/30 column (Pharmacia LKB Biotechnology, Uppsala, Sweden), equilibrated in and subsequently developed in PBS. The Pharmacia FPLC system was run at a flow rate of 0.25 ml/min with 0.5 ml fractions collected directly into scintillation vials, to which 3 ml of scintillation fluid was added, and the radioactivity determined. The column was calibrated with ^3H-N-acetylglucosamine (221 Da), bovine lung heparin (12.5 kDa) and heparin-derived Mr ave. standards (16.7, 10.6, 6.7 and 3.1 kDa) which had been partially de-N-acetylated and re-N-acetylated with ^3H-acetic anhydride as described above for the preparation of radiolabelled HS. Radiolabelled chondroitin-6-sulphate and carboxyl-reduced HS (prepared by the method of Karamanos et al, (1988)) were also prepared by the above method.

The target of data set [2] is T2, Human platelet homogenate heparanase activity (Homo sapiens, UniProt Q9Y251).
T2 construct: assessed using the highly invasive rat mammary adenocarcinoma 13762 MAT and human platelet homogenates; from tissue; host or cells: human platelets (Triton X-100 freeze/thaw homogenate)
T2 sequence (Q9Y251 36-543): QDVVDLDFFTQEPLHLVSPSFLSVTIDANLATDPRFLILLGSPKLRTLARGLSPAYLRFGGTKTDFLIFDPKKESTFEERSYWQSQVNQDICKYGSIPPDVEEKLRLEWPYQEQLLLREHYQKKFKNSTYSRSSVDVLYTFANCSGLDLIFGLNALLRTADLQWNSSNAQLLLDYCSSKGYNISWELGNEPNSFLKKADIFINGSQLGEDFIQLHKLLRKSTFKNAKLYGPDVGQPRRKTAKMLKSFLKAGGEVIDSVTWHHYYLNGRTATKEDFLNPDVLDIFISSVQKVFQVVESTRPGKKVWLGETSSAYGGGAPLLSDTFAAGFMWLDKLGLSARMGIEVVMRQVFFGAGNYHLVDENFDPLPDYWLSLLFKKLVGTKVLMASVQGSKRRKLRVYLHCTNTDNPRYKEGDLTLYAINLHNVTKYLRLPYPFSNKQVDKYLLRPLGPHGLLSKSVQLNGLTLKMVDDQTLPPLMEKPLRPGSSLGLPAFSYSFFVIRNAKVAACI
Briefly: Substrate degradation by human platelet homogenate heparanase activity. It is filed as biochemical. As to the method: To assay for heparanase activity, up to 2 μl of sample was added to an incubation mixture consisting of 90 pmol of radiolabelled HS in 0.05M-sodium acetate buffer, pH 5.1, containing 5 mM-N-acetylmannosamine and 0.1 mg/ml BSA in a total volume of 20 μl and incubated at 37° C. for the appropriate time. The reaction was stopped by freezing the tubes, 0.3 ml cold PBS added, the solution centrifuged if necessary at 4° C. and 0.1 ml of the sample applied to a cHRG-Sepharose mini-column pre-equilibrated in PBS. The columns were washed with 0.7 ml PBS, the washings and flow through material transferred to a scintillation vial, 10 ml of scintillation fluid added, and the radioactivity determined. Enzyme activity was expressed as pmol product formed per hour per mg protein or 10^6 cells or ml of serum. The cHRG-Sepharose columns were regenerated by the addition of 1 ml of 0.05M-Tris-HCl buffer, pH 7.5, containing 2M-NaCl and then equilibrated with PBS.
Heparanase activity was also detected by gel filtration chromatography of the incubation mixture on a Superose 6 HR 10/30 column (Pharmacia LKB Biotechnology, Uppsala, Sweden), equilibrated in and subsequently developed in PBS. The Pharmacia FPLC system was run at a flow rate of 0.25 ml/min with 0.5 ml fractions collected directly into scintillation vials, to which 3 ml of scintillation fluid was added, and the radioactivity determined. […]

Data set [3] addresses T3, human platelet heparanase (Homo sapiens, UniProt Q9Y251).
T3 construct: human platelet heparanase has been purified to homogeneity from previously frozen, washed platelets; from tissue; host or cells: human platelets (frozen, washed; five-column purification)
T3 sequence (Q9Y251 158-543 limits assumed): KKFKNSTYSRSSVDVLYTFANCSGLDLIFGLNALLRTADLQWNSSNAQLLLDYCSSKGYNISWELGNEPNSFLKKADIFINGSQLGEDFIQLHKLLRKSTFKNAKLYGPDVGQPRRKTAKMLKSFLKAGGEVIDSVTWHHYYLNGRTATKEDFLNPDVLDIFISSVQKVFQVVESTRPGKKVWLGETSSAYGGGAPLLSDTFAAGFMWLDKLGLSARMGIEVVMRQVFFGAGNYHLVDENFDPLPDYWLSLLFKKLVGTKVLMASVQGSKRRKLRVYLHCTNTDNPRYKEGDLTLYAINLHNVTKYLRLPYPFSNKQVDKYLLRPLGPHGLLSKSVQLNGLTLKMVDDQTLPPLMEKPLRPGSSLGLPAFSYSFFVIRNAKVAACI
T3 sequence (Q9Y251 36-109 limits assumed): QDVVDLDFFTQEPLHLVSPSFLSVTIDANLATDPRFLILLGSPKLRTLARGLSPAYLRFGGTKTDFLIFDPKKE
The experiment in a line: Heparanase assay 2: gel filtration analysis of HS or heparin degradation by purified human platelet heparanase. It is filed as biochemical. The note with it: 16 h at 37° C. The procedure: Heparanase activity towards 2 μg of the radiolabelled HS or heparin analogues was assayed as described above for 16 h at 37° C., and detected by gel filtration analysis of the incubation mixture on either Superose 6 (for HS degradation) or Superose 12 (for heparin degradation). The chromatography columns were both equilibrated in and developed with PBS at a flow rate of 0.25 ml/min with 0.5 ml fractions being collected directly into scintillation vials, to which 3 ml of scintillation fluid was added, and the radioactivity determined. The columns were calibrated with ^3H-N-acetylglucosamine (221 Da), bovine lung heparin (12.5 kDa) and heparin-derived Mrave. standards (16.7, 10.6, 6.7 and 3.1 kDa) which had been partially de-N-acetylated and re-N-acetylated with ^3H-acetic anhydride as described above for the preparation of radiolabelled HS.

The subject of another data set is cHRG-Sepharose. The experiment in a line: Binding of HS to cHRG-Sepharose, NaCl gradient elution. The note with it: salt gradient at pH 7.2. Also noted: species or system chicken. As to the method: Binding of HS to cHRG-Sepharose; Samples in 200 μl of PBS were applied to a mini-column (0.5×4.0 cm) of cHRG-Sepharose equilibrated in PBS at 4° C. The column was washed with 2 ml of PBS and eluted with a linear gradient (2×10 mls) of PBS and 10 mM-sodium phosphate buffer, pH7.2, containing 1.2M-NaCl developed at 0.5 ml/min with 0.5 ml fractions collected directly into scintillation vials, to which 4 ml of scintillation fluid was added and the radioactivity determined. The columns were re-equilibrated in PBS for further use.

Another data set can be described thus: Storage stability. In kind it is physicochemical. The note with it: stored at −20° C. in 10% (v:v) aqueous ethanol, repeated freezing and thawing.

In the case of “carboxyl-reduced heparan sulphate [CR-HS]”, the “heparanase activity towards the substrate” value is recorded as “No activity was detected” in data set [1] and “did not act” in data set [2].

For the substance “chondroitin-6-sulphate [chrondroitin-6-sulphate]”, in data set [1], the “heparanase activity towards the substrate” value is “No activity was detected”.

Turning to heparan sulphate [HS], the “size of fragments after cleavage” value in data set [3] was 5 kDa. For the same substance, the “apparent Mr of degradation fragments” value was 5 kDa in data set [1] (pH 5.1, 16 h at 37° C.); 8 kDa in data set [1] (pH 6.5, 16 h at 37° C.); 16 kDa in data set [1] (pH 7.5, 16 h at 37° C.). The “NaCl concentration eluting from cHRG-Sepharose” value in the data set on cHRG-Sepharose came out at 0.27 M-NaCl. Besides, the storage stability entry in “Storage stability” is reported as “stable for over a year”. In data set [2], the “size of digestion fragments” value was 5 kDa.
